biological target: Melatonin receptor (Gallus gallus, UniProt P49288+P51050+P49285); experiment: In vitro binding affinity against melatonin receptor using 2-[125I]iodomelatonin (0.05 nM) and chicken brain membranes; design: species or system Membrane

First: COc1cc2ccccc2c2c1CC(NC(C)=O)CC2 (stereo not drawn)
Second: COc1c2c(cc3ccccc13)CCC(NC(C)=O)C2 (stereo not drawn)
The Ki of the first is 1.6-fold lower: 168 nM for the first, 273 nM for the second.

Compared with `COc1ccc2ccc(O)c3c2c1CC(NC(C)=O)C3` (stereo not drawn), `COc1ccc2ccc(OC)c3c2c1CC(NC(C)=O)C3` is 33-fold lower in Ki: 22.8 nM for the first, 0.7 nM for the second.

First: CCC(=O)NC1Cc2cccc3ccc(OC)c(c23)C1 (stereo not drawn)
Second: COc1ccc2cccc3c2c1CC(NC(C)=O)C3 (stereo not drawn)
The Ki of the first is 4.8-fold lower: 6 nM for the first, 28.7 nM for the second.

Compared with `CC(=O)NC1Cc2cccc3cccc(c23)C1`, `CC(=O)NCCc1c[nH]c2ccc(O)cc12` [ACETYLSEROTONIN] is 8.4-fold higher in Ki: 195 nM for the first, 1640 nM for the second.

— ChEMBL document CHEMBL1129259 (J Med Chem, 1996)
